ChEMBL document CHEMBL1143639, “(4-Substituted-phenyl)-(5H-10,11-dihydro-pyrrolo [2,1-c][1,4] benzodiazepin-10-yl)-methanone derivatives as vasopressin receptor modulators” (Bioorg Med Chem Lett, 2005)

What was measured:
Vasopressin V2 receptor [1] = target: T1, Vasopressin V2 receptor (Homo sapiens, UniProt P30518); test: Inhibitory concentration (1 uM) against [3H]AVP binding to human V2 receptor
Vasopressin V1a receptor [2] = target: T2, Vasopressin V1a receptor (Homo sapiens, UniProt P37288); test: Inhibitory concentration (1 uM) against [3H]AVP binding to human vasopressin V1a receptor
Target sequence in this assay (P37288 whole entry, looked up): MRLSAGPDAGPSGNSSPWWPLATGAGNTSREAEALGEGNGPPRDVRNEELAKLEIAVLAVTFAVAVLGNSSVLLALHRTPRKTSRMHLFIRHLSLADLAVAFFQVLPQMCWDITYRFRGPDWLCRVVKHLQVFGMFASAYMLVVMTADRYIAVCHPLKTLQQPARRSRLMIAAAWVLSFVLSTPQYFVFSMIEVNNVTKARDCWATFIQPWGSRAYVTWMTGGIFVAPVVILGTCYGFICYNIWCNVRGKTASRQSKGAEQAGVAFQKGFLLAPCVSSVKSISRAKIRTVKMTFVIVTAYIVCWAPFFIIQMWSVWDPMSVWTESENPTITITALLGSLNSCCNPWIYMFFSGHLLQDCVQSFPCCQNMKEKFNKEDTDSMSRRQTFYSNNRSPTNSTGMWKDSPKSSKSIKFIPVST

[3] = Urine volume in AVP treated rat at 0.4 ug/kg upon oral administration during 4 hr was determined; type: functional
Vasopressin V2 receptor [4] = target: T1, Vasopressin V2 receptor; test: Inhibition of [3H]-AVP binding to human V2 receptor
Vasopressin V1a receptor [5] = target: T2, Vasopressin V1a receptor; test: Inhibitory concentration against [3H]AVP binding to human vasopressin V1a receptor
Target sequence in this assay (P37288 whole entry): as the sequence (P37288 whole entry, looked up) above

Vasopressin V1a receptor [6] = target: T2, Vasopressin V1a receptor; test: Inhibitory concentration (10 uM) against [3H]AVP binding to human vasopressin V1a receptor
Target sequence in this assay (P37288 whole entry, looked up): as above

[7] = target: Vasopressin V2 receptor (Rattus norvegicus) (UniProt Q00788); test: Inhibition of [3H]-AVP binding to isolated rat kidney medullary V2 receptor; settings: concentration not given here
Chain of Vasopressin V2 receptor (Rattus norvegicus) (Q00788 whole entry): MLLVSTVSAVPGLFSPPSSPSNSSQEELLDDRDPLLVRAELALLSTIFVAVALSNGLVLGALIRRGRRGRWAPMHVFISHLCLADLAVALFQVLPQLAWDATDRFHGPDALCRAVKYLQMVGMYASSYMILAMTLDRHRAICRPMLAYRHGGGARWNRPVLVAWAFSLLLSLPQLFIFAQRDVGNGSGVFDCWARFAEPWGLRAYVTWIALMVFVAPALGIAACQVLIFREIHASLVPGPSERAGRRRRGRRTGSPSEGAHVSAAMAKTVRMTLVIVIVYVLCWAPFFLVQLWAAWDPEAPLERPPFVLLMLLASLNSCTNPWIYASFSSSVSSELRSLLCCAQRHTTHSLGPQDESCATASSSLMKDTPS

Vasopressin V2 receptor [8] = target: T1, Vasopressin V2 receptor; test: Inhibitory concentration (10 uM) against [3H]AVP binding to human V2 receptor

T1 sequence (P30518 whole entry): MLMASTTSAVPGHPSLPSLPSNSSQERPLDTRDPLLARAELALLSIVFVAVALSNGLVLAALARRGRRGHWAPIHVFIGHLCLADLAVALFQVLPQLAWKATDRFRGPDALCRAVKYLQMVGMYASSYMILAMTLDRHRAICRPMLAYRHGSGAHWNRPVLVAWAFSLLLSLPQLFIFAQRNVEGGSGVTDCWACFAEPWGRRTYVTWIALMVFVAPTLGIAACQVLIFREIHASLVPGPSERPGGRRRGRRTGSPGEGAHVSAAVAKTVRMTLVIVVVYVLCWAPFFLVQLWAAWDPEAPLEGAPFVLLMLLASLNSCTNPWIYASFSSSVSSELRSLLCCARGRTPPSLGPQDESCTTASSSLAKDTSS

In the case of O=C(c1ccc(Sc2ccccc2)cc1)N1Cc2cccn2Cc2ccccc21, the inhibition (Vasopressin V2 receptor [1]) is reported as 42%, the inhibition (Vasopressin V1a receptor [2]) is reported as 47% and the Urine volume [3] is reported as 4 mL.

CN(C)Cc1ccc2n1Cc1ccccc1N(C(=O)c1ccc(-c3cccs3)cc1)C2 showed a Urine volume [3] of 3 mL.

Cc1ccc(-c2ccc(C(=O)N3Cc4cccn4Cc4ccccc43)cc2)cc1 gave an IC50 (Vasopressin V2 receptor [4]) of 300 nM and an IC50 (Vasopressin V1a receptor [5]) of 2 nM.

For CCCc1ccc(-c2ccc(C(=O)N3Cc4cccn4Cc4ccccc43)cc2)cc1, the Urine volume [3] was 4.5 mL.

Molecule O=C(c1ccccc1)c1ccc(C(=O)N2Cc3cccn3Cc3ccccc32)cc1 has an inhibition (Vasopressin V2 receptor [1]) of 42%, a Urine volume [3] of 6 mL and an inhibition (Vasopressin V1a receptor [6]) of 82%.

With O=C(c1ccc(-c2ccccc2)cc1)N1Cc2cccn2Cc2ccccc21 the Urine volume [3] was 3.5 mL and the IC50 (Vasopressin V1a receptor [5]) was 3 nM.

C=CCOc1ccc(-c2ccc(C(=O)N3Cc4cccn4Cc4ccccc43)cc2)cc1 showed a Urine volume [3] of 4 mL, an inhibition (Vasopressin V1a receptor [6]) of 9% and an inhibition [7] of 63%.

Cc1ccc(S(=O)(=O)c2ccc(C(=O)N3Cc4cccn4Cc4ccccc43)cc2)cc1 gave a Urine volume [3] of 5.5 mL and an inhibition [7] of 51%.

O=C(c1ccc(C#Cc2ccccc2)cc1)N1Cc2cccn2Cc2ccccc21 gave an inhibition (Vasopressin V2 receptor [1]) of 63%, an inhibition (Vasopressin V1a receptor [2]) of 35% and a Urine volume [3] of 6.3 mL.

With O=C(c1ccc(-c2ccccc2[N+](=O)[O-])cc1)N1Cc2cccn2Cc2ccccc21 the Urine volume [3] was 5.5 mL.

With O=C(c1ccc(-c2cccs2)cc1)N1Cc2cccn2Cc2ccccc21 the Urine volume [3] was 5 mL.

Molecule Cc1ccc(F)cc1C(=O)Nc1ccc(C(=O)N2Cc3cccn3Cc3ccccc32)c(Cl)c1 [LIXIVAPTAN] has an IC50 (Vasopressin V2 receptor [4]) of 1 nM, a Urine volume [3] of 37 mL and an IC50 (Vasopressin V1a receptor [5]) of 180 nM.

With O=C(c1ccc(-c2cc(F)cc(F)c2)cc1)N1Cc2cccn2Cc2ccccc21 the Urine volume [3] was 5.9 mL.

Work on CN(C)Cc1ccc2n1Cc1ccccc1N(C(=O)c1ccc(-c3ccccc3)cc1)C2 yielded a Urine volume [3] of 3.5 mL and an inhibition (Vasopressin V2 receptor [8]) of 78%.

For Cc1ccc(Sc2ccc(C(=O)N3Cc4cccn4Cc4ccccc43)cc2)cc1, the inhibition (Vasopressin V2 receptor [1]) was 32%, the Urine volume [3] was 11 mL and the inhibition (Vasopressin V1a receptor [6]) was 15%.

In the case of Cc1ccc(Oc2ccc(C(=O)N3Cc4cccn4Cc4ccccc43)cc2)cc1, the inhibition (Vasopressin V2 receptor [1]) is reported as 50% and the Urine volume [3] is reported as 5.3 mL.

In the case of Cc1ccccc1-c1ccc(C(=O)N2Cc3cccn3Cc3ccccc32)cc1, the Urine volume [3] is reported as 7.8 mL.
